Test system: KB
Experiment: Cytotoxicity against human KB cells
Assay type: functional, cell-based

Row | Compound | Activity
1 | C=C[C@H]1CC[C@H]2[C@@H]3CC[C@H]4[C@@H](O[C@@H]5O[C@H](CO)[C@@H](O)[C@H](OS(=O)(=O)O)[C@H]5O)[C@@H](OS(=O)(=O)O)CC[C@]4(CO)[C@H]3CC[C@]12C | Not toxic
2 | C=CC1C(O)C(O)C2C3CCC4C(O)C(O)C(OS(=O)(=O)O)CC4(C)C3CCC12C (stereo not given) | Not toxic
3 | C=CC1C(O)CC2C3CCC4C(O)C(O)C(OS(=O)(=O)O)CC4(C)C3CCC12C (stereo not given) | Not toxic
4 | C=C[C@H]1CC[C@H]2[C@@H]3CC[C@H]4[C@@H](O[C@@H]5O[C@H](CO)[C@@H](O)[C@H](OS(=O)(=O)O)[C@H]5O)[C@@H](O)CC[C@]4(CO)[C@H]3CC[C@]12C | Not toxic
5 | C=CC1CC(O)C2C3CCC4C(O)C(O)C(OS(=O)(=O)O)CC4(C)C3CCC12C (stereo not given) | Not toxic

Reference: ChEMBL document CHEMBL1151826, “Sulfated steroids: ptilosteroids A-C and ptilosaponosides A and B from the Solomon Islands marine sponge Ptilocaulis spiculifer” (J Nat Prod, 2009)
